# In ChEMBL document CHEMBL3272144, “Application of the Free-Wilson technique to structurally related series of homologues. Quantitative structure-activity relationship studies of narcotic analgetics” (1977):
# Organism: Mus musculus
# Test: Analgesic activity in mouse by hot-plate method
# Format: functional
row,SMILES,log(1/C)
1,CCCCC(=O)Oc1ccc2c(c1)[C@@]1(c3ccccc3)CCN(C)C(C2)[C@H]1C,2.78
2,CC[C@@]12CCN(C)C(Cc3ccc(OC)cc31)[C@@H]2O (mixture of isomers),0.99
3,C[C@@H]1C2Cc3ccc(O)cc3[C@@]1(C)CCN2C (stereo in doubt; 92),1.6
4,COc1ccc2c(c1)[C@@]1(C)CCN(CCc3ccccc3)C(C2)[C@@H]1O (mixture of isomers),1.58
5,C[C@H]1C2Cc3ccc(OC(=O)c4cccnc4)cc3[C@@]1(C)CCN2CC1CC1 (mixture of isomers),2.59
6,C[C@H]1[C@H]2Cc3ccc(O)cc3[C@@]1(C)CCN2CC1CC1 (racemic),1.37
7,C[C@H]1C2Cc3ccc(F)cc3[C@@]1(C)CCN2C (mixture of isomers),1.08
8,COc1ccc2c(c1)[C@@]1(C)CCN(C)C(C2)[C@]1(C)O (mixture of isomers),1.65
9,CC[C@@]12CCN(C)C(Cc3ccc(O)cc31)C2 (stereo in doubt; 20),2.62
10,C[C@H]1C2Cc3ccc(O)cc3[C@@]1(C)CCN2C,2.71
11,CC[C@@]1(O)C2Cc3ccc(OC)cc3[C@@]1(C)CCN2C (mixture of isomers),1.87
12,CN1CC[C@]2(C)c3ccccc3CC1[C@@]2(C)O (mixture of isomers),0.68
13,CCC[C@@H]1C2Cc3ccc(O)cc3[C@@]1(CCC)CCN2C (mixture of isomers),2.88
14,CC(=O)Oc1ccc2c(c1)[C@H]1CCN(C)C(C2)C1 (mixture of isomers),1.57
15,C[C@@H]1C2Cc3ccccc3[C@@]1(C)CCN2C (mixture of isomers),1.82
16,CCCC(=O)Oc1ccc2c(c1)[C@@]1(C)CCN(C)C(C2)C1 (mixture of isomers),1.92
17,COc1ccc2c(c1)[C@@]1(C)CCN(C)C(C2)[C@@H]1C,1.87
18,CN1CC[C@H]2CC1Cc1ccc(O)cc12 (stereo in doubt; 96),1.22
19,CCCCC[C@@]12CCN(C)C(Cc3ccc(O)cc31)C2 (mixture of isomers),1.96
20,COc1ccc2c(c1)[C@@]1(C)CCN(C)C(C2)[C@@]1(C)O,1.48
21,CN1CC[C@H]2CC1Cc1ccccc12 (mixture of isomers),1.3
22,CC(=O)Oc1ccc2c(c1)[C@@]1(C)CCN(C)C(C2)[C@]1(C)OC(C)=O (mixture of isomers),2.66

row,SMILES,log(1/C)
1,CN1CC[C@@H]2c3cc(O)ccc3CC1[C@H]2CO (mixture of isomers),1.62
2,CC[C@@]12CCN(C)C(Cc3ccc(O)cc31)[C@H]2O (mixture of isomers),1.67
3,CC(=O)Oc1ccc2c(c1)[C@@]1(C)CCN(C)C(C2)[C@@H]1C (mixture of isomers),2.72
4,CC[C@H]1C2Cc3ccc(O)cc3[C@@]1(CC)CCN2C (stereo in doubt; 30),2.35
5,CCC(=O)O[C@@]12CCN(C)C(Cc3ccccc31)C2 (mixture of isomers),1.43
6,CN1CC[C@@]2(C)CC1Cc1ccccc12 (mixture of isomers),1.33
7,C[C@H]1C2Cc3ccc(O)cc3[C@@]1(C)CCN2CCc1ccccc1 (stereo in doubt; 87),2.05
8,CC[C@H]1C2Cc3ccc(O)cc3[C@@]1(C)CCN2C (stereo in doubt; 97),1.2
9,CC[C@@H]1C2Cc3ccccc3[C@@]1(CC)CCN2C (mixture of isomers),1.8
10,C[C@@H]1C2Cc3ccc(O)cc3[C@@]1(c1ccccc1)CCN2C (stereo in doubt; 8),3.26
11,C[C@H]1C2Cc3ccccc3[C@@]1(C)CCN2C (mixture of isomers),1.27
12,COc1ccc2c(c1)[C@@]1(C)CCN(C)C(C2)C1 (mixture of isomers),1.64
13,CC[C@H]1C2Cc3ccc(O)cc3[C@@]1(CC)CCN2C (stereo in doubt; 93),1.51
14,C[C@H]1C2Cc3ccccc3[C@@]1(C)CCN2CCC(=O)c1ccccc1 (mixture of isomers),1.93
15,C[C@H]1C2Cc3ccc(Cl)cc3[C@@]1(C)CCN2C (mixture of isomers),0.83
16,COc1ccc2c(c1)[C@@]1(C)CCN(C)C(C2)[C@H]1O (mixture of isomers),1.14
17,CC[C@@]12CCN(C)C(Cc3ccc(OC(C)=O)cc31)[C@]2(C)OC(C)=O (mixture of isomers),2.82
18,CC[C@@H]1C2Cc3ccc(O)cc3[C@@]1(CC)CCN2C (stereo in doubt; 6),3.51
19,CC(=O)Oc1ccc2c(c1)[C@@]1(C)CCN(C)C(C2)C1 (mixture of isomers),1.98
20,CC[C@@]12CCN(C)C(Cc3ccc(OC)cc31)[C@@H]2OC(C)=O (mixture of isomers),1.48
21,C[C@H]1C2Cc3ccccc3[C@@]1(O)CCN2C (mixture of isomers),0.75
22,C[C@@H]1C2Cc3ccc(O)cc3[C@@]1(C)CCN2C (stereo in doubt; 9),3.22

row,SMILES,log(1/C)
1,CCC(=O)Oc1ccc2c(c1)[C@@]1(C)CCN(C)C(C2)C1 (mixture of isomers),1.98
2,CN1CC[C@]2(C)c3cc(O)ccc3CC1[C@]2(C)O (mixture of isomers),1.89
3,COc1ccc2c(c1)[C@@]1(c3ccccc3)CCN(C)C(C2)[C@H]1C,2.14
4,CCC[C@@]12CCN(C)C(Cc3ccccc31)[C@@H]2C (mixture of isomers),1.42
5,CC(=O)O[C@@]12CCN(C)C(Cc3ccccc31)C2 (mixture of isomers),1.64
6,CC(C)=CCN1CC[C@]2(C)c3cc(O)ccc3CC1[C@@H]2C,1.53
7,CC[C@H]1C2Cc3ccc(O)cc3[C@@]1(CC)CCN2CCc1ccccc1 (mixture of isomers),2.61
8,C[C@H]1C2Cc3ccc(O)cc3[C@@]1(C)CCN2CCc1ccccc1 (stereo in doubt; 2),3.83
9,CN1CC[C@]2(C)c3ccccc3CC1[C@]2(C)O (mixture of isomers),1.16
10,CN1CC[C@@]2(c3ccccc3)CC1Cc1ccccc12 (stereo in doubt; 44),1.77
11,CC[C@@H]1C2Cc3ccc(O)cc3[C@@]1(C)CCN2C (mixture of isomers),3.07
12,C[C@]1(O)C2Cc3ccc(O)cc3[C@@]1(C)CCN2CCc1ccccc1 (mixture of isomers),2.05
13,CC[C@@]12CCN(C)C(Cc3ccc(O)cc31)[C@@H]2C (mixture of isomers),2.06
14,CC(=O)Oc1ccc2c(c1)[C@@]1(C)CCN(CCC(=O)c3ccccc3)C(C2)[C@@H]1C (mixture of isomers),2.49
15,CC(=O)Oc1ccc2c(c1)[C@@]1(C)CCN(CCc3ccccc3)C(C2)[C@@H]1C (mixture of isomers),3.61
16,CCC[C@@]12CCN(C)C(Cc3ccc(O)cc31)[C@@H]2C (stereo in doubt; 25),2.57
17,CC[C@@H]1C2Cc3ccc(O)cc3[C@@]1(CC)CCN2C (stereo in doubt; 95),1.31
18,C=CC#CCN1CC[C@]2(CC)c3cc(O)ccc3CC1[C@@H]2CC (stereo in doubt; 90),1.79
19,CN1CC[C@]2(C)c3ccccc3CC1[C@@H]2O (mixture of isomers),0.97
20,CCCC[C@@]12CCN(C)C(Cc3ccc(O)cc31)C2 (mixture of isomers),2.17
21,CCC[C@@]12CCN(C)C(Cc3ccc(O)cc31)C2 (mixture of isomers),2.43
22,CC[C@@]12CCN(C)C(Cc3ccc(O)cc31)[C@H]2C,3.92

row,SMILES,log(1/C)
1,CC(=O)O[C@H]1C2Cc3ccccc3[C@@]1(C)CCN2C (mixture of isomers),1.37
2,C[C@H]1C2Cc3ccc(OC(=O)c4cccnc4)cc3[C@@]1(C)CCN2CCc1ccccc1,3.68
3,CC[C@H]1C2Cc3ccc(OC(=O)c4cccnc4)cc3[C@@]1(CC)CCN2C (mixture of isomers),1.54
4,CC[C@@]12CCN(CCc3ccccc3)C(Cc3ccc(O)cc31)C2 (mixture of isomers),3.66
5,C[C@@]12CCN(CCc3ccccc3)C(Cc3ccccc31)C2 (mixture of isomers),1.26
6,CC[C@@]12CCN(C)C(Cc3ccc(O)cc31)C2 (stereo in doubt; 99),1.03
7,COc1ccc2c(c1)[C@@]1(C)CCN(CCc3ccccc3)C(C2)[C@@H]1C,2.66
8,CC(C)=CCN1CC[C@]2(C)c3cc(O)ccc3CC1[C@H]2C,1.7
9,CN1CC[C@]2(C)c3cc(O)ccc3CC1[C@@]2(C)O (mixture of isomers),2.15
10,CN1CC[C@H]2CC1Cc1ccc(O)cc12 (stereo in doubt; 46),1.72
11,C[C@@H]1C2Cc3ccc(O)cc3[C@@]1(c1ccccc1)CCN2C (stereo in doubt; 88),1.99
12,C[C@@H]1C2CCN(CCc3ccccc3)C1Cc1ccc(O)cc12 (mixture of isomers),3.21
13,CCC[C@@]12CCN(C)C(Cc3ccc(O)cc31)[C@H]2C (mixture of isomers),3.45
14,C=CC#CCN1CC[C@]2(CC)c3cc(O)ccc3CC1[C@@H]2CC (stereo in doubt; 72),3.7
15,CC[C@H]1C2Cc3ccc(OC)cc3[C@@]1(CC)CCN2C (stereo in doubt; 42),1.81
16,CN1CC[C@@]2(C)CC1Cc1ccc(O)cc12 (stereo in doubt; 98),1.04
17,CC[C@H]1C2Cc3ccc(O)cc3[C@@]1(C)CCN2C (stereo in doubt; 21),2.62
18,CC[C@@]12CCN(C)C(Cc3ccc(O)cc31)[C@]2(C)OC(C)=O (mixture of isomers),2.78
19,C[C@@]12CCNC(Cc3ccc(O)cc31)[C@H]2O (mixture of isomers),0.88
20,C[C@H]1C2Cc3ccc(O)cc3[C@@]1(C)CCN2CCc1cccs1 (mixture of isomers),4.04
21,CC[C@H]1C2Cc3ccc(OC)cc3[C@@]1(CC)CCN2C (stereo in doubt; 91),1.62
22,CN1CC[C@@]2(C)CC1Cc1ccc(O)cc12 (stereo in doubt; 31),2.16
